These results are taken from article PMC9995496, “A screen for MeCP2-TBL1 interaction inhibitors using a luminescence-based assay” (Scientific Reports, 2023).

Counter-ions that a name gives are not always drawn.

In the first assay the test system is PRKACA-PRKAR2A interaction (SmBiT-PRKACA / LgBiT-PRKAR2A), protein kinase A. Also on record: NanoLuc complementation counter-screen in cell extract, PRKACA with PRKAR2A, loss of luminescence, detects NanoLuc interference. Conditions: counter-screen for NanoLuc interference, 0.5 h, 20 µM, inhibitor, Inh (PKA). For orientation: A counterscreen serves to expose hits that act by an unwanted route or on another target.
`CNC(=O)c1cc(Oc2ccc(NC(=O)Nc3ccc(Cl)c(C(F)(F)F)c3)cc2)ccn1` [UM0127950:06, Sorafenib]: the “Inh (PKA)” value stood at 5.105%.

As to `Cc1ccc(NC(=O)c2ccc(CN3CCN(C)CC3)cc2)cc1Nc1nccc(-c2cccnc2)n1` [UM0127952:03, Imatinib (STI571)], the “Inh (PKA)” value is 7.189%.

As to `CS(=O)(=O)CCNCc1ccc(-c2ccc3ncnc(Nc4ccc(OCc5cccc(F)c5)c(Cl)c4)c3c2)o1` [UM0127953:02, Lapatinib], the “Inh (PKA)” value is reported as 55.05%.

For the molecule `Cc1ccc(Nc2nccc(N(C)c3ccc4c(C)n(C)nc4c3)n2)cc1S(N)(=O)=O` [UM0127957:02, Pazopanib (GW-786034)], the “Inh (PKA)” value is 11.23%.

On to `Clc1ccc(Nc2nnc(Cc3ccncc3)c3ccccc23)cc1` [UM0127963:02, Vatalanib (PTK787) 2HCl], for which the “Inh (PKA)” value is listed as 26.41%.

With `Clc1ccc(Nc2nnc(Cc3ccncc3)c3ccccc23)cc1` [UM0127963:03, Vatalanib], the “Inh (PKA)” value is listed as 29.07%.

As to `Cc1cccc(-c2[nH]c(C(C)(C)C)nc2-c2ccc3c(c2)OCO3)n1` [UM0127976:02, SB-505124 hydrochloride], the “Inh (PKA)” value was found to be 12.14%.

For `C[C@@H]1CCN(C(=O)CC#N)C[C@@H]1N(C)c1ncnc2[nH]ccc12` [UM0128176:02, Tofacitinib (CP-690550,Tasocitinib)], the “Inh (PKA)” value is listed as -2.944%.

The assay is the same for the next values; noted with them: counter-screen for NanoLuc interference; 0.5 h, 20 µM; inhibitor.
`Cc1ccc(-n2nc(C(C)(C)C)cc2NC(=O)Nc2ccc(OCCN3CCOCC3)c3ccccc23)cc1` [UM0127947:02, BIRB 796 (Doramapimod)]: the “Inh (PKA)” value was 10.73%.

For `CCCS(=O)(=O)Nc1ccc(F)c(C(=O)c2c[nH]c3ncc(Cl)cc23)c1F` [UM0127949:04, PLX-4720], the “Inh (PKA)” value worked out at 29.68%.

With `Cc1ccc(NC(=O)c2ccc(CN3CCN(C)CC3)cc2)cc1Nc1nc(-c2cccnc2)cs1` [UM0127954:03, Masitinib (AB1010)], the “Inh (PKA)” value worked out at 15.54%.

Regarding `Cc1cn(-c2cc(NC(=O)c3ccc(C)c(Nc4nccc(-c5cccnc5)n4)c3)cc(C(F)(F)F)c2)cn1` [UM0127956:03, Nilotinib(AMN-107)], the “Inh (PKA)” value amounted to 17.26%.

As for `CC[C@H](CO)Nc1nc(NCc2ccccc2)c2ncn(C(C)C)c2n1` [UM0127958:02, Roscovitine (Seliciclib,CYC202)], the “Inh (PKA)” value turned out to be 10.31%.

Regarding `Cc1cc(Nc2cc(N3CCN(C)CC3)nc(Sc3ccc(NC(=O)C4CC4)cc3)n2)n[nH]1` [UM0127961:02, VX-680 (MK-0457,Tozasertib)], the “Inh (PKA)” value came out at 9.039%.

On to `COc1cc2/c(=N/c3ccc(Br)cc3F)nc[nH]c2cc1OCC1CCN(C)CC1` [UM0127962:02, Vandetanib (ZD6474)], for which the “Inh (PKA)” value is on record as 5.275%.

For `NC(=O)c1ccc(N(C(N)=O)c2c(F)cccc2F)nc1-c1ccc(F)cc1F` [UM0127964:03, VX-702], the “Inh (PKA)” value is 6.199%.

In the case of `Cc1ccc(NC(=O)c2cccc(C(C)(C)C#N)c2)cc1Nc1ccc2ncn(C)c(=O)c2c1` [UM0127965:02, AZ 628], the “Inh (PKA)” value amounted to 24.58%.

Turning to `O=C(O)c1ccnc(C(=O)O)c1` [UM0128207:03, 2,4-Pyridinedicarboxylic Acid], the “Inh (PKA)” value is 1.396%.

As for `CCCS(=O)(=O)Nc1ccc(F)c(C(=O)c2c[nH]c3ncc(-c4ccc(Cl)cc4)cc23)c1F` [UM0128310:03, Vemurafenib (PLX4032, RG7204)], the “Inh (PKA)” value stood at 34.51%.

With `CC(/C=C/C(=O)NO)=C\[C@@H](C)C(=O)c1ccc(N(C)C)cc1` [UM0128540:02, Trichostatin A (TSA)], the “Inh (PKA)” value was determined as 3.519%.

Turning to `O=C1CCc2c(ccc3ccccc23)O1` [UM0128542:02, Splitomicin], the “Inh (PKA)” value was 1.175%.

As for `O=C(CCCCCN1C(=O)c2cccc3cccc(c23)C1=O)NO` [UM0128546:02, Scriptaid], the “Inh (PKA)” value came to 3.14%.

With `Nc1ncn([C@H]2C[C@H](O)[C@@H](CO)O2)c(=O)n1` [UM0128548:04, Decitabine (NSC127716, 5AZA-CdR)], the “Inh (PKA)” value was found to be 0.991%.
